# In patent US20260262643A1, “HERBICIDAL BENZOXAZINES” (FMC CORPORATION, priority 2022, published 2026):
# Key:
# ducksalad = test: Test D flooded paddy test; assay type: in vivo, Heteranthera limosa; settings: 250 g ai/ha, applied to paddy water, visual rating after 13 to 14 days, scale 0 to 100 (0 no effect, 100 complete control)
# Summary of the method: (§1)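 Visual ratings from 0, meaning no effect, to 100, meaning complete control, were assigned against untreated controls 13 to 14 days after compounds were added to the floodwater of pots kept 3 cm deep, with plants at the 2-leaf stage.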
# horseweed = test: Test C postemergence; assay type: in vivo, Erigeron canadensis; settings: 10 days, 0 to 100 scale (0 no effect, 100 complete control)
# Summary of the method: (§2)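 Pre: seeds in loam/sand, directed soil spray. Post: 1–2 leaf plants, 2–10 cm. Cmpd in non-phytotoxic solvent + surfactant. Greenhouse 10 d; visual rating vs untreated, 0 = none, 100 = complete control.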
# ryegrass, Italian [1] = test: Test C postemergence; assay type: in vivo, Lolium multiflorum; settings: 10 days, 0 to 100 scale (0 no effect, 100 complete control)
# Summary of the method: as §2
# wheat [2] = test: Test C postemergence; assay type: in vivo, Triticum aestivum; settings: 10 days, 0 to 100 scale (0 no effect, 100 complete control)
# Summary of the method: as §2
# blackgrass [3] = test: Test C postemergence; assay type: in vivo, Alopecurus myosuroides; settings: 10 days, 0 to 100 scale (0 no effect, 100 complete control)
# Summary of the method: as §2
# sedge, umbrella = test: Test D flooded paddy test; assay type: in vivo, Cyperus difformis; settings: 250 g ai/ha, applied to paddy water, visual rating after 13 to 14 days, scale 0 to 100 (0 no effect, 100 complete control)
# Summary of the method: as §1
# barnyardgrass [4] = test: Test D flooded paddy test; assay type: in vivo, Echinochloa crus-galli; settings: 250 g ai/ha, applied to paddy water, visual rating after 13 to 14 days, scale 0 to 100 (0 no effect, 100 complete control)
# Summary of the method: as §1
# kochia [5] = test: Test C preemergence; assay type: in vivo, Bassia scoparia
# Summary of the method: as §2
# pigweed, palmer [6] = test: Test C preemergence; assay type: in vivo, Amaranthus palmeri
# Summary of the method: as §2
# ryegrass, Italian [7] = test: Test C preemergence; assay type: in vivo, Lolium multiflorum
# Summary of the method: as §2
# ragweed [8] = test: Test C preemergence; assay type: in vivo, Ambrosia artemisiifolia
# Summary of the method: as §2
# oat, wild [9] = test: Test C preemergence; assay type: in vivo, Avena fatua
# Summary of the method: as §2
# soybean [10] = test: Test C postemergence; assay type: in vivo, Glycine max; settings: 10 days, 0 to 100 scale (0 no effect, 100 complete control)
# Summary of the method: as §2
# corn [11] = test: Test C preemergence; assay type: in vivo, Zea mays
# Summary of the method: as §2
# pigweed, palmer [12] = test: Test C postemergence; assay type: in vivo, Amaranthus palmeri; settings: 10 days, 0 to 100 scale (0 no effect, 100 complete control)
# Summary of the method: as §2
# barnyardgrass [13] = test: Test C preemergence; assay type: in vivo, Echinochloa crusgalli
# Summary of the method: as §2
# galium = test: Test C postemergence; assay type: in vivo, Galium aparine; settings: 10 days, 0 to 100 scale (0 no effect, 100 complete control)
# Summary of the method: as §2
# wheat [14] = test: Test C preemergence; assay type: in vivo, Triticum aestivum
# Summary of the method: as §2
# blackgrass [15] = test: Test C preemergence; assay type: in vivo, Alopecurus myosuroides
# Summary of the method: as §2
# corn [16] = test: Test C postemergence; assay type: in vivo, Zea mays; settings: 10 days, 0 to 100 scale (0 no effect, 100 complete control)
# Summary of the method: as §2
# oat, wild [17] = test: Test C postemergence; assay type: in vivo, Avena fatua; settings: 10 days, 0 to 100 scale (0 no effect, 100 complete control)
# Summary of the method: as §2
# barnyardgrass [18] = test: Test C postemergence; assay type: in vivo, Echinochloa crusgalli; settings: 10 days, 0 to 100 scale (0 no effect, 100 complete control)
# Summary of the method: as §2
# ragweed [19] = test: Test C postemergence; assay type: in vivo, Ambrosia artemisiifolia; settings: 10 days, 0 to 100 scale (0 no effect, 100 complete control)
# Summary of the method: as §2
# rice = test: Test D flooded paddy test; assay type: in vivo, Oryza sativa; settings: 250 g ai/ha, applied to paddy water, visual rating after 13 to 14 days, scale 0 to 100 (0 no effect, 100 complete control)
# Summary of the method: as §1
# green foxtail [20] = test: Test C preemergence; assay type: in vivo, Setaria viridis
# Summary of the method: as §2
# green foxtail [21] = test: Test C postemergence; assay type: in vivo, Setaria viridis; settings: 10 days, 0 to 100 scale (0 no effect, 100 complete control)
# Summary of the method: as §2
# kochia [22] = test: Test C postemergence; assay type: in vivo, Bassia scoparia; settings: 10 days, 0 to 100 scale (0 no effect, 100 complete control)
# Summary of the method: as §2
# soybean [23] = test: Test C preemergence; assay type: in vivo, Glycine max
# Summary of the method: as §2
# [24] = 500 g ai/ha, preemergence, 0 to 100 scale (0 no effect, 100 complete control)
# [25] = Preemergence, 125 g ai/ha, 0 to 100 scale, 0 no effect, 100 complete control
compound,measurement,setting,value
CC(=O)N(C)c1ncn(-c2cccc(C(=O)N3C[C@H](C)Oc4c(C)cccc43)c2)n1 [Compound 336],"Plant response rating, Ducksalad (Flood)",ducksalad,25
same,"Plant response rating, Horseweed","horseweed; 500 g ai/ha, postemergence",0
same,"Plant response rating, Horseweed","horseweed; Postemergence, 125 g ai/ha",0
same,"Plant response rating, Ryegrass, Italian","ryegrass, Italian [1]; 500 g ai/ha, postemergence",80
same,"Plant response rating, Ryegrass, Italian","ryegrass, Italian [1]; Postemergence, 125 g ai/ha",50
same,"Plant response rating, Wheat","wheat [2]; 500 g ai/ha, postemergence",40
same,"Plant response rating, Wheat","wheat [2]; Postemergence, 125 g ai/ha",10
same,"Plant response rating, Blackgrass","blackgrass [3]; 500 g ai/ha, postemergence",90
same,"Plant response rating, Blackgrass","blackgrass [3]; Postemergence, 125 g ai/ha",30
same,"Plant response rating, Sedge, Umbrella (Flood)","sedge, umbrella",0
same,"Plant response rating, Barnyardgrass (Flood)",barnyardgrass [4],0
same,Kochia plant response rating,kochia [5]; [24],90
same,"Plant response rating, Kochia",kochia [5]; [25],0
same,"Pigweed, Palmer plant response rating","pigweed, palmer [6]; [24]",90
same,"Plant response rating, Pigweed, Palmer","pigweed, palmer [6]; [25]",10
same,"Ryegrass, Italian plant response rating","ryegrass, Italian [7]; [24]",90
same,"Plant response rating, Ryegrass, Italian","ryegrass, Italian [7]; [25]",70
same,Ragweed plant response rating,ragweed [8]; [24],0
same,"Plant response rating, Ragweed",ragweed [8]; [25],0
same,"Oat, Wild plant response rating","oat, wild [9]; [24]",30
same,"Plant response rating, Oat, Wild","oat, wild [9]; [25]",0
same,"Plant response rating, Soybean","soybean [10]; 500 g ai/ha, postemergence",100
same,"Plant response rating, Soybean","soybean [10]; Postemergence, 125 g ai/ha",80
same,Corn plant response rating,corn [11]; [24],20
same,"Plant response rating, Corn",corn [11]; [25],0
same,"Plant response rating, Pigweed, Palmer","pigweed, palmer [12]; 500 g ai/ha, postemergence",70
same,"Plant response rating, Pigweed, Palmer","pigweed, palmer [12]; Postemergence, 125 g ai/ha",20
same,Barnyardgrass plant response rating,barnyardgrass [13]; [24],100
same,"Plant response rating, Barnyardgrass",barnyardgrass [13]; [25],20
same,"Plant response rating, Galium","galium; 500 g ai/ha, postemergence",90
same,"Plant response rating, Galium","galium; Postemergence, 125 g ai/ha",60
same,Wheat plant response rating,wheat [14]; [24],40
same,"Plant response rating, Wheat",wheat [14]; [25],0
same,Blackgrass plant response rating,blackgrass [15]; [24],40
same,"Plant response rating, Blackgrass",blackgrass [15]; [25],30
same,"Plant response rating, Corn","corn [16]; 500 g ai/ha, postemergence",60
same,"Plant response rating, Corn","corn [16]; Postemergence, 125 g ai/ha",20
same,"Plant response rating, Oat, Wild","oat, wild [17]; 500 g ai/ha, postemergence",70
same,"Plant response rating, Oat, Wild","oat, wild [17]; Postemergence, 125 g ai/ha",10
same,"Plant response rating, Barnyardgrass","barnyardgrass [18]; 500 g ai/ha, postemergence",60
same,"Plant response rating, Barnyardgrass","barnyardgrass [18]; Postemergence, 125 g ai/ha",10
same,"Plant response rating, Ragweed","ragweed [19]; 500 g ai/ha, postemergence",10
same,"Plant response rating, Ragweed","ragweed [19]; Postemergence, 125 g ai/ha",20
same,"Plant response rating, Rice (Flood)",rice,0
same,"Foxtail, Green plant response rating",green foxtail [20]; [24],100
same,"Plant response rating, Foxtail, Green",green foxtail [20]; [25],80
same,"Plant response rating, Foxtail, Green","green foxtail [21]; 500 g ai/ha, postemergence",60
same,"Plant response rating, Foxtail, Green","green foxtail [21]; Postemergence, 125 g ai/ha",20
same,"Plant response rating, Kochia","kochia [22]; 500 g ai/ha, postemergence",80
same,"Plant response rating, Kochia","kochia [22]; Postemergence, 125 g ai/ha",60
same,Soybean plant response rating,soybean [23]; [24],30
same,"Plant response rating, Soybean",soybean [23]; [25],0
